Measurements taken from US9518015B2, “EP1 receptor ligands” (LABORATORIOS DEL DR. ESTEVE, S.A., priority 2011, dated 2016).

Experiments:
human EP1 receptor [1] = biological target: T1, human EP1 receptor (Homo sapiens, UniProt P34995); experiment: Test 3: Measurement of IP1 responses by HTRF, HEK-293 cells stably expressing human EP1 receptors incubated o/n, PGE2 10 nM; format: cell-based; parameters: expressed in transfected cells; details: for inhibition at 10 µM: HEK293, read-out: Results of Test 3 (Functional assay), % inh
T1 sequence (P34995 1-402): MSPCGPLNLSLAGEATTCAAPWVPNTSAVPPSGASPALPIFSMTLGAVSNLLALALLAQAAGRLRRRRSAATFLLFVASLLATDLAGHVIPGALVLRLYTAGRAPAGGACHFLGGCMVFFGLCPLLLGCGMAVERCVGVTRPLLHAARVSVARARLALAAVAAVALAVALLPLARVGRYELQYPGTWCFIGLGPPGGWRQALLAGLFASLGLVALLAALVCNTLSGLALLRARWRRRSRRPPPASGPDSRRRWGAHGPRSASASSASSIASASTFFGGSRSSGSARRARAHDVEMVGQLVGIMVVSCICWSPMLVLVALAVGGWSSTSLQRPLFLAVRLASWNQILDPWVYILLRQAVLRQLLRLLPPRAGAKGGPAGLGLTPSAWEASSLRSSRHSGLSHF
Experimental: Test 3: Measurement of IP1 Responses by Homogeneous Time Resolved Fluorescence
IP1 measurements on HEK-293 cells that stably expressed human EP1 receptors were performed by using a system based on Homogeneous Time Resolved Fluorescense (HTRF) (Gabriel et al., 2003). This technology allows the direct measurement of IP1 in living cells. The principle of this assay is based on competition between IP1 produced by cells and IP1-d2 conjugate for the binding with monoclonal anti-IP1-cryptate conjugate. The HTRF IP1 kit from CisBio was used according to the manufacturer's directions. The experimental procedure was performed as stated below.
40,000 cells per well were added to 96-well culture plates in 40 μl of Optimem and incubated o/n at 37° C. Optimem was replaced by 40 μl of stimulation buffer (supplied by the kit) and compounds were then added in 20 μl of stimulation buffer and incubated at 37° C. for 15 minutes followed by 10 μl of PGE2 to a final concentration of 10 nM. After 90 minutes at 37° C., the reaction was stopped lysing the cells with a mixture of 15 μl of cryptate and 15 μl of IP1-d2 prepared in the lysis buffer supplied by the manufacturer. Plates were incubated for an additional hour at room temperature and read at 665 nm/620 nm using an UltraEvolution Plate reader (Tecan).
Antagonist percentage inhibition was calculated relating compounds activity to the 0% inhibition of the wells incubated with 10 nM PGE2 alone and 100% inhibition of the wells incubated with 10 nM PGE2 plus 10 μM of the reference antagonist.

human EP1 receptor [2] = biological target: T1, human EP1 receptor; experiment: Test 1: Human EP1 receptor radioligand binding assay ([3H]-PGE2, transfected HEK-293 cell membranes); parameters: expressed in transfected cells; host or cells: HEK-293 cell membranes; details: for inhibition at 10 µM: read-out: Results of Test 1 (Binding assay), % inh
In short: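 Membranes from transfected HEK-293 cells (30 μg protein) incubated with 10 nM [3H]-PGE2 in pH 6.0 MES buffer for 60 min at 25° C., then filtered and counted by scintillation. Percent inhibition set against total binding and 10 μM PGE2 non-specific binding.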

| inhibition at 10 µM (human EP1 receptor [1]) [%] | inhibition at 10 µM (human EP1 receptor [2]) [%] | Results of Test 3 (Functional assay), % inh (human EP1 receptor [1]; at 10 μM) | Results of Test 1 (Binding assay), % inh (human EP1 receptor [2]; at 10 μM) | Structure (SMILES) |
| --- | --- | --- | --- | --- |
| > 75 | > 75 | – | – | O=C(O)c1cccc2c1OCCN2Cc1cc(F)ccc1OCc1ccc(F)cc1Cl [Example 121] |
| > 75 | > 75 | – | – | O=C(O)c1cccc2c1OCCN2Cc1cc(Cl)ccc1OC1CCC1 [Example 197] |
| > 75 | > 75 | – | – | O=C(O)c1cccc2c1c(CO)cn2Cc1cc(Cl)ccc1OCc1ccc(F)cc1F [Example 142] |
| > 75 | > 75 | – | – | O=C(O)c1cccc2c1c(CO)cn2Cc1ccccc1OCc1ccc(Cl)cc1F [Example 144] |
| > 75 | > 75 | – | – | Cc1ccc(OCc2ccc(Cl)cc2F)c(CN2CCOc3c(C(=O)O)cccc32)c1 [Example 194] |
| > 75 | > 75 | – | – | CC(C)COc1ccc(Cl)cc1Cn1cc(CCO)c2c(C(=O)O)cccc21 [Example 157] |
| > 75 | > 75 | – | – | O=C(O)c1cccc2c1OCCN2Cc1cc(Cl)ccc1OCc1ccc(Cl)cc1F [Example 117] |
| > 75 | > 75 | – | – | CC(C)COc1ccc(F)cc1CN1CCc2c(C(=O)O)cccc21 [Example 170] |
| > 75 | > 75 | – | – | O=C(O)c1cccc2c1c(CO)nn2Cc1cc(Cl)ccc1OCc1ccc(Cl)cc1F [Example 188, sodium 1-(5-chloro-2-((4-chloro-2-fluorobenzyl)oxy)benzyl)-3-(hydroxymethyl)-1H-indazole-4-carboxylate] |
| > 75 | > 75 | – | – | O=C(O)c1cccc2c1OCCN2Cc1ccccc1OCc1ccc(Cl)cc1F [Example 119] |
| > 75 | > 75 | – | – | CC(C)COc1ccc(Cl)cc1CN1CCCc2c(C(=O)O)cccc21 [Example 175] |
| > 75 | > 75 | – | – | O=C(O)c1cncc2c1CCN2Cc1cc(Cl)ccc1OCc1ccc(Cl)cc1F [Example 248, sodium 1-{5-chloro-2-[(4-chloro-2-fluorobenzyl)oxy]benzyl}-2,3-dihydro-1H-pyrrolo[2,3-c]pyridine-4-carboxylate] |
| > 75 | > 75 | – | – | CC(C)(F)COc1ccc(Cl)cc1CN1CCCc2c(C(=O)O)cncc21 [Example 242] |
| – | – | $ (% inh > 75) | # (% inh > 75) | CC(C)(F)COc1ccc(Cl)cc1CN1CCc2c(C(=O)[O-])ccnc21.[Na+] [Example 221] |
| > 75 | > 75 | – | – | CC(CF)COc1ccc(Cl)cc1Cn1cc(CO)c2c(C(=O)O)cccc21 (stereo not shown) [Example 151] |
| > 75 | > 75 | – | – | O=C(O)c1ccnc2c1c(CO)cn2Cc1cc(Cl)ccc1OCc1ccc(F)cc1F [Example 152] |
| > 75 | > 75 | – | – | O=C(O)c1cccc2c1cnn2Cc1cc(Br)ccc1OCc1ccc(Cl)cc1F [Example 136] |
| > 75 | > 75 | – | – | O=C(O)c1cncc2c1CCCN2Cc1cc(F)ccc1OCc1ccc(F)cc1F [Example 243] |
| > 75 | > 75 | – | – | CC(C)COc1ccc(Cl)cc1CN1CCc2c(C(=O)O)cccc21 [Example 169] |
| > 75 | > 75 | – | – | C=C(CF)COc1ccc(Cl)cc1CN1CCCc2c(C(=O)O)cccc21 [Example 182] |
